{"source": "patent US20210161950A1", "about": "“Veterinary Supplement for Effecting Bone and Cartilage” (priority 2017, published 2021)", "origin": "cited, not measured here", "key": {"[1]": {"test_system": "bone fractures in rats"}, "[2]": {"test_system": "osteoarthritis", "settings": "meta-analysis"}, "[3]": {"test_system": "degenerated cartilage of the mandibular joint", "settings": "oral strontium"}}}
{"smiles": "N[C@H]1C(O)O[C@H](CO)[C@@H](O)[C@@H]1O.O=S(=O)(O)O", "note": "(stereo partly drawn) [glucosamine sulfate]", "values": [{"measurement": "connective tissue surrounding bones", "setting": "[1]; rats, after 4 weeks of 230 milligrams glucosamine sulfate daily", "result": "more cellular and vascular"}, {"measurement": "strength of newly formed, previously fractured bones", "setting": "[1]; rats, after 4 weeks of 230 milligrams glucosamine sulfate daily, compared to controls", "result": "stronger compared to controls"}]}
{"smiles": "N[C@H]1C(O)O[C@H](CO)[C@@H](O)[C@@H]1O", "note": "(stereo partly drawn) [glucosamine]", "values": [{"measurement": "new bone formation and osteoblast lining", "setting": "[1]; glucosamine-treated rats compared to control groups", "result": "significantly higher"}, {"measurement": "healing time of bone fractures", "setting": "[1]; rats", "result": "helped accelerate the healing time"}, {"measurement": "mobility of joints", "setting": "[2]", "result": "Improves mobility of joints"}, {"measurement": "osteoarthritis progression", "setting": "[2]", "result": "Reduces osteoarthritis progression"}, {"measurement": "pain", "setting": "[2]", "result": "Reduces pain"}, {"measurement": "risk of total joint replacement", "setting": "[2]", "result": "Reduces risk of total joint replacement"}]}
{"smiles": "[Sr+2]", "note": "[strontium]", "values": [{"measurement": "cartilage thickness and cell density", "setting": "[3]", "result": "increased cartilage thickness and cell density"}, {"measurement": "expression of cartilage catabolic factors and pro-inflammatory cytokines", "setting": "[3]", "result": "decreased expression"}, {"measurement": "expression of cartilage matrix molecules such as Collagen II and aggrecan", "setting": "[3]", "result": "increased expression"}, {"measurement": "subchondral bone loss and mandibular condylar cartilage degradation", "setting": "[3]", "result": "reversed"}]}
